Paper PMC4522657, “Identification of a DYRK1A Inhibitor that Induces Degradation of the Target Kinase using Co-chaperone CDC37 fused with Luciferase nanoKAZ” (Scientific Reports, 2015)

Columns and labels:
Experiment in all cases: Kinase panel, CaNDY 1 µM
Format in all cases: biochemical
Conditions in all cases: CaNDY 1 µM relative to DMSO
MET = target: T1, MET (Homo sapiens, UniProt P08581)
T1 construct: purchased Carna Biosciences
Source text: (§1) Detailed information on the assay conditions is available on the website of Carna Biosciences (http://www.carnabio.com/english/index.html; Kobe, Japan). In brief, full-length human recombinant kinases were expressed using a baculovirus expression system as amino-terminal GST-fusion proteins, and purified by glutathione-Sepharose chromatography. The GenBank accession numbers of DYRK1A, DYRK1B, DYRK2, and DYRK3 were NP_001387.2, NP_004705.1, NP_003574.1, and NP_003573.2. Kinase activities were evaluated by Off-chip Mobility Shift Assay after reaction of 1 μM of the substrate DYRKtide-F with ATP (25 μM for DYRK1A, 50 μM for DYRK1B, 10 μM for DYRK2, and 5 μM for DYRK3). For each compound, a DMSO solution was diluted in assay buffer to yield a final concentration of 1% DMSO. After incubation for one hour at room temperature, substrate phosphorylation was analyzed by electrophoretic separation of the substrate and products using a Caliper LC3000 platform (Caliper Life Sciences, Mountain View, CA, USA). The phosphorylated product (P)/(P + substrate) ratio was calculated at each concentration of each small molecule and the percent inhibition was expressed relative to a control assay in the absence of the small molecule. […] The IC50 of each compound was calculated by interpolation on a log-concentration-response curve fitted with a four-parameter logistic equation.
(§2) All kinase assays were carried out at Carna Biosciences. The inhibitory map was made with Kinome Render[36].

ZAP70 = target: T2, ZAP70 (Homo sapiens, UniProt P43403)
T2 construct: purchased Carna Biosciences
Source text: as §1, §2

JNK1 = target: T3, JNK1 (Homo sapiens, UniProt P45983)
T3 construct: purchased Carna Biosciences
Source text: as §1, §2

ITK = target: T4, ITK (Homo sapiens, UniProt Q08881)
T4 construct: purchased Carna Biosciences
Source text: as §1, §2

MAP3K3_Cascade = target: T5, MAP3K3_Cascade (Homo sapiens, UniProt Q99759)
T5 construct: purchased Carna Biosciences
Source text: as §1, §2

DCAMKL2 = target: T6, DCAMKL2 (Homo sapiens, UniProt Q8N568)
T6 construct: purchased Carna Biosciences
Source text: as §1, §2

MLK3_Cascade = target: T7, MLK3_Cascade (Homo sapiens, UniProt Q16584)
T7 construct: purchased Carna Biosciences
Source text: as §1, §2

AMPKα1/β1/γ1 = target: T8, AMPKα1/β1/γ1 (Homo sapiens, UniProt Q13131)
T8 construct: purchased Carna Biosciences
Source text: as §1, §2

WNK3 = target: T9, WNK3 (Homo sapiens, UniProt Q9BYP7)
T9 construct: purchased Carna Biosciences
Source text: as §1, §2

Erk5 = target: T10, Erk5 (Homo sapiens, UniProt Q13164)
T10 construct: purchased Carna Biosciences
Source text: as §1, §2

CK1α = target: T11, CK1α (Homo sapiens, UniProt P48729)
T11 construct: purchased Carna Biosciences
Source text: as §1, §2

CDK3/CycE1 = target: T12, CDK3/CycE1 (Homo sapiens, UniProt Q00526)
T12 construct: purchased Carna Biosciences
Source text: as §1, §2

KIT = target: T13, KIT (Homo sapiens, UniProt P10721)
T13 construct: purchased Carna Biosciences
Source text: as §1, §2

PKCε = target: T14, PKCε (Homo sapiens, UniProt Q02156)
T14 construct: purchased Carna Biosciences
Source text: as §1, §2

IKKβ = target: T15, IKKβ (Homo sapiens, UniProt O14920)
T15 construct: purchased Carna Biosciences
Source text: as §1, §2

ALK = target: T16, ALK (Homo sapiens, UniProt Q9UM73)
T16 construct: purchased Carna Biosciences
Source text: as §1, §2

MARK3 = target: T17, MARK3 (Homo sapiens, UniProt P27448)
T17 construct: purchased Carna Biosciences
Source text: as §1, §2

RSK3 = target: T18, RSK3 (Homo sapiens, UniProt Q15349)
T18 construct: purchased Carna Biosciences
Source text: as §1, §2

MST4 = target: T19, MST4 (Homo sapiens, UniProt Q9P289)
T19 construct: purchased Carna Biosciences
Source text: as §1, §2

CDK2/CycA2 = target: T20, CDK2/CycA2 (Homo sapiens, UniProt P24941)
T20 construct: purchased Carna Biosciences
Source text: as §1, §2

HIPK1 = target: T21, HIPK1 (Homo sapiens, UniProt Q86Z02)
T21 construct: purchased Carna Biosciences
Source text: as §1, §2

NuaK1 = target: T22, NuaK1 (Homo sapiens, UniProt O60285)
T22 construct: purchased Carna Biosciences
Source text: as §1, §2

JNK2 = target: T23, JNK2 (Homo sapiens, UniProt P45984)
T23 construct: purchased Carna Biosciences
Source text: as §1, §2

NuaK2 = target: T24, NuaK2 (Homo sapiens, UniProt Q9H093)
T24 construct: purchased Carna Biosciences
Source text: as §1, §2

RSK2 = target: T25, RSK2 (Homo sapiens, UniProt P51812)
T25 construct: purchased Carna Biosciences
Source text: as §1, §2

CHK2 = target: T26, CHK2 (Homo sapiens, UniProt O96017)
T26 construct: purchased Carna Biosciences
Source text: as §1, §2

KIT(T670I) = target: T27, KIT(T670I) (Homo sapiens, UniProt P10721, T670I)
T27 construct: purchased Carna Biosciences
Source text: as §1, §2

EPHA2 = target: T28, EPHA2 (Homo sapiens, UniProt P29317)
T28 construct: purchased Carna Biosciences
Source text: as §1, §2

ROCK1 = target: T29, ROCK1 (Homo sapiens, UniProt Q13464)
T29 construct: purchased Carna Biosciences
Source text: as §1, §2

CDK5/p25 = target: T30, CDK5/p25 (Homo sapiens, UniProt Q00535)
T30 construct: purchased Carna Biosciences
Source text: as §1, §2

NEK6 = target: T31, NEK6 (Homo sapiens, UniProt Q9HC98)
T31 construct: purchased Carna Biosciences
Source text: as §1, §2

PKD3 = target: T32, PKD3 (Homo sapiens, UniProt O94806)
T32 construct: purchased Carna Biosciences
Source text: as §1, §2

MST2 = target: T33, MST2 (Homo sapiens, UniProt Q13188)
T33 construct: purchased Carna Biosciences
Source text: as §1, §2

SGK = target: T34, SGK (Homo sapiens, UniProt O00141)
T34 construct: purchased Carna Biosciences
Source text: as §1, §2

AKT2 = target: T35, AKT2 (Homo sapiens, UniProt P31751)
T35 construct: purchased Carna Biosciences
Source text: as §1, §2

HCK = target: T36, HCK (Homo sapiens, UniProt P08631)
T36 construct: purchased Carna Biosciences
Source text: as §1, §2

T34 sequence (O00141 whole entry): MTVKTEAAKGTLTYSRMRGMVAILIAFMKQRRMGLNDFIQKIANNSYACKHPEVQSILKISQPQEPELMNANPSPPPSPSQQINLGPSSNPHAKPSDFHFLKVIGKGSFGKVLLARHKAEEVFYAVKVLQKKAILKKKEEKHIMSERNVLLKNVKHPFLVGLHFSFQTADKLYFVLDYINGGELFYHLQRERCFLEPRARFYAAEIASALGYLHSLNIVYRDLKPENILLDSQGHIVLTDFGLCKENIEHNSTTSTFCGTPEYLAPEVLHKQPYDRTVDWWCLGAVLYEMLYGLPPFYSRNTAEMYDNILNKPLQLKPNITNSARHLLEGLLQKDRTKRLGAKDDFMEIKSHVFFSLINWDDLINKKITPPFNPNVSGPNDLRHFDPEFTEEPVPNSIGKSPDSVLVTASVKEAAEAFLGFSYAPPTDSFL
T5 sequence (Q99759 whole entry): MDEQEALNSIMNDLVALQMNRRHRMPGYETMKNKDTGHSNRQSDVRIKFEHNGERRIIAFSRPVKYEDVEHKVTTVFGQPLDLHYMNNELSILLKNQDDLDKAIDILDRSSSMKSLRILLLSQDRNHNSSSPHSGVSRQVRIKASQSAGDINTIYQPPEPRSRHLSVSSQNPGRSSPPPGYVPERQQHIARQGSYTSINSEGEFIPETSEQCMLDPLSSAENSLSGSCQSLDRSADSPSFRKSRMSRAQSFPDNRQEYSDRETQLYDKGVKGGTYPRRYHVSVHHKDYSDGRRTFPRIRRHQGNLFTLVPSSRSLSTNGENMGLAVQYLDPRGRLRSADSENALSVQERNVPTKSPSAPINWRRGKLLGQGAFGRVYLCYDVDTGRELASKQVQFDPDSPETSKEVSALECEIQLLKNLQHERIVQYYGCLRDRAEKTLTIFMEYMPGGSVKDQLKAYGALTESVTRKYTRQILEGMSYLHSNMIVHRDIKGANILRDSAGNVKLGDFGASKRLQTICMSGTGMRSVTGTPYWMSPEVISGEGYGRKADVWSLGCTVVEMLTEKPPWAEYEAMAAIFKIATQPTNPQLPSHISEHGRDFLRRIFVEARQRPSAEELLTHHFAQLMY
T10 sequence (Q13164 whole entry): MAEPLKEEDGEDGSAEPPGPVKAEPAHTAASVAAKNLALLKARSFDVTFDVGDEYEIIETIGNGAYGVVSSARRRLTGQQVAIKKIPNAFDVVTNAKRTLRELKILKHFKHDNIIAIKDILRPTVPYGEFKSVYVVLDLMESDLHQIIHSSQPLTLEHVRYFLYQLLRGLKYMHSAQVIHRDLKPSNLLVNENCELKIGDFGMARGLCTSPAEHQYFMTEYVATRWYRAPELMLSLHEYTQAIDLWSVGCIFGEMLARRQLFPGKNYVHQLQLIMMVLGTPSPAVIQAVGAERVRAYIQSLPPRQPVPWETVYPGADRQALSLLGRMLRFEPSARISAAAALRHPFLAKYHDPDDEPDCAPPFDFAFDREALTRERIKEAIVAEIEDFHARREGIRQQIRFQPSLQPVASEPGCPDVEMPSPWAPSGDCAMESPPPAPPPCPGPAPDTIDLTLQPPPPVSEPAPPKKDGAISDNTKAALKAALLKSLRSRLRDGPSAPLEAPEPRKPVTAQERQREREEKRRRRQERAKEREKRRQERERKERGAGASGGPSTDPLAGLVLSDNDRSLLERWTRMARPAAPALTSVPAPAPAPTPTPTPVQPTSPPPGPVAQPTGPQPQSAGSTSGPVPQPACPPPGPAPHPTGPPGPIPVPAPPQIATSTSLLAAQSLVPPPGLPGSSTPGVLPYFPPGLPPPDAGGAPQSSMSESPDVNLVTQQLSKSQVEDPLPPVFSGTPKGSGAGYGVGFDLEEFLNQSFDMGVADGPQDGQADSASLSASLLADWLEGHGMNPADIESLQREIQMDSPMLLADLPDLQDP
T8 sequence (Q13131 whole entry): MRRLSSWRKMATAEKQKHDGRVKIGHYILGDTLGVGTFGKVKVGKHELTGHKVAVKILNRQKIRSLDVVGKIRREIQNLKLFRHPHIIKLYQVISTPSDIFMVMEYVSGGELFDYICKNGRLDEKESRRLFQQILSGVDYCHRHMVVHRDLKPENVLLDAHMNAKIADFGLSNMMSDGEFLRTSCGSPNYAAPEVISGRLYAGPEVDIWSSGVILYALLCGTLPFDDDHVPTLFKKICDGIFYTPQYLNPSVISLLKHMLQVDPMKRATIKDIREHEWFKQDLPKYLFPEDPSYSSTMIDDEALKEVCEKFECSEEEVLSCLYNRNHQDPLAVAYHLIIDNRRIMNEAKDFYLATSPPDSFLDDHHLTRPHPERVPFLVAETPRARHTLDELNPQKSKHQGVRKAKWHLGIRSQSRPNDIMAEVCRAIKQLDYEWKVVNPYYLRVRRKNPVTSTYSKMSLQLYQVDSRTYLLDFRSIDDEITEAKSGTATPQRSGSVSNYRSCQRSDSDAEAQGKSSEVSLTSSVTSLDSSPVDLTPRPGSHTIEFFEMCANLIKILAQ
T8 sequence (Q9Y478 whole entry partner): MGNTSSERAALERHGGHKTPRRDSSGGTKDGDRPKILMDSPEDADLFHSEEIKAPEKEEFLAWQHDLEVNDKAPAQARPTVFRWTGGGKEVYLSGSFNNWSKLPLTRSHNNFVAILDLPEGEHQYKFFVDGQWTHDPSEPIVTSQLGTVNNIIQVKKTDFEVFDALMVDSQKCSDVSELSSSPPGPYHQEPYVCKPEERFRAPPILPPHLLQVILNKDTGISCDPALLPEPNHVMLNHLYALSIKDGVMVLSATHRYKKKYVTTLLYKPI
T8 sequence (P54619 whole entry partner): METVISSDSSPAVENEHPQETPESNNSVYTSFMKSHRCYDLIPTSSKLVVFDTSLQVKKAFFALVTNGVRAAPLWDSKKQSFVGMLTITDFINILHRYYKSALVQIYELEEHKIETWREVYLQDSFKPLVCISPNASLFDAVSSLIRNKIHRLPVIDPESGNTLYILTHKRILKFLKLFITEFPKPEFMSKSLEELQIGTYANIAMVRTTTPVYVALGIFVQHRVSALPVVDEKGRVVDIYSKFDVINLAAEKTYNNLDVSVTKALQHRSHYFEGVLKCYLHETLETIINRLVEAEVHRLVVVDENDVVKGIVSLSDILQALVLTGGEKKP
T24 sequence (Q9H093 whole entry): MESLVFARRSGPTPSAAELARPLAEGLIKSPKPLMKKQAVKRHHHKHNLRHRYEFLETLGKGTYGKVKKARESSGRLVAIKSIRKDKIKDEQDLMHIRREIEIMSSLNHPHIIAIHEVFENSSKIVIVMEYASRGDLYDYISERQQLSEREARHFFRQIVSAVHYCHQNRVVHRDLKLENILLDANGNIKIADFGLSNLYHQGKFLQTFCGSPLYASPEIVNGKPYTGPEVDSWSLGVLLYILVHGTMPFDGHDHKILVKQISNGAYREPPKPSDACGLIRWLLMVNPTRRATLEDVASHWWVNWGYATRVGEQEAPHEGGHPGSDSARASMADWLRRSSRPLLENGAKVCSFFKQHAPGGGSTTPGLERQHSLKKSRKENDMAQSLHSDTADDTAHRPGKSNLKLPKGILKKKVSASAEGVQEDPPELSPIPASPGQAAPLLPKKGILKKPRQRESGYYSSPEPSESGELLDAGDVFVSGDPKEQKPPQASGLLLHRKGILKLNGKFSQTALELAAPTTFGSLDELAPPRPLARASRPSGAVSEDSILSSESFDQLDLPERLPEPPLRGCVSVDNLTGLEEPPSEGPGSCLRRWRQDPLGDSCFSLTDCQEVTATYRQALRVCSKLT
T33 sequence (Q13188 whole entry): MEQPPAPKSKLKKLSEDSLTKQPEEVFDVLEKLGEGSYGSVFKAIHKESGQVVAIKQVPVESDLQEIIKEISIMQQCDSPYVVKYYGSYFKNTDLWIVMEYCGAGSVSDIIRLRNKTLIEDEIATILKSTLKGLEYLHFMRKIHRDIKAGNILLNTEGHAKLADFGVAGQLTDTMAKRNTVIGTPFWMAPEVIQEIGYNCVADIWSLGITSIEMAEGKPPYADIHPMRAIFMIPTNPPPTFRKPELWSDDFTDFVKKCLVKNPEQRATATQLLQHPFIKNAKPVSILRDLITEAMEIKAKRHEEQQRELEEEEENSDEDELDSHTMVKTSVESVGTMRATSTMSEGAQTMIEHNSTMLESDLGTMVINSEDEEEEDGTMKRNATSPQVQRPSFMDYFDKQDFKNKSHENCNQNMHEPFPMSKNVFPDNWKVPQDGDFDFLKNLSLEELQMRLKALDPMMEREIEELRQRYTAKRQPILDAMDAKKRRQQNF
T26 sequence (O96017 whole entry): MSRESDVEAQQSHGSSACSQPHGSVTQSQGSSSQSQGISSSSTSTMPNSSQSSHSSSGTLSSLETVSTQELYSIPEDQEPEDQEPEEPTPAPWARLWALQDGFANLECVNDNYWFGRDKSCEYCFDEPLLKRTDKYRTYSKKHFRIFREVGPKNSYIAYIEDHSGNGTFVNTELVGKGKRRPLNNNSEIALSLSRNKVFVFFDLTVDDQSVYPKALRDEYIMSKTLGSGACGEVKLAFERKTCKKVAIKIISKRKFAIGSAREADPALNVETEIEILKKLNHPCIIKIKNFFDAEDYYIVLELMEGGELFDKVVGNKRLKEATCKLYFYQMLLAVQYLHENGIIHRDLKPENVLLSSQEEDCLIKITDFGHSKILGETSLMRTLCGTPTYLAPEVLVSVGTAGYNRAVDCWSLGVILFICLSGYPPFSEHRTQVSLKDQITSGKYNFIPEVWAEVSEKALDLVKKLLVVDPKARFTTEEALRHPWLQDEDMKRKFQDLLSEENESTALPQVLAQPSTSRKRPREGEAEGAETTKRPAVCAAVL

Question: Which results are given for `[H]/N=C1/NC(=O)C(=Cc2ccc3c(c2)CCO3)S1` [CaNDY, (Z)-5-[(2,3-dihydrobenzofuran-5-yl)methylene]-2-iminothiazolidin-4-one]?
Answer: %Activity (MET): 97.7%; remaining activity at 1 µM (ZAP70): 95.7%; %Activity (JNK1): 102.4%; %Activity (ITK): 99.9%; remaining activity at 1 µM (MAP3K3_Cascade): 104%; remaining activity at 1 µM (DCAMKL2): 102%; %Activity (MLK3_Cascade): 100.9%; remaining activity at 1 µM (AMPKα1/β1/γ1): 91.9%; remaining activity at 1 µM (WNK3): 102%; remaining activity at 1 µM (Erk5): 104%; remaining activity at 1 µM (CK1α): 73.6%; %Activity (CDK3/CycE1): 94.7%; remaining activity at 1 µM (KIT): 99.3%; remaining activity at 1 µM (PKCε): 91.9%; remaining activity at 1 µM (IKKβ): 104%; remaining activity at 1 µM (ALK): 98.7%; remaining activity at 1 µM (MARK3): 95%; remaining activity at 1 µM (RSK3): 91.4%; remaining activity at 1 µM (MST4): 103%; %Activity (CDK2/CycA2): 86.3%; remaining activity at 1 µM (HIPK1): 30.9%; %Activity (NuaK1): 98.1%; %Activity (JNK2): 102.6%; %Activity (NuaK2): 98.1%; remaining activity at 1 µM (RSK2): 91.1%; remaining activity at 1 µM (CHK2): 97.2%; remaining activity at 1 µM (KIT(T670I)): 96.6%; remaining activity at 1 µM (EPHA2): 100%; remaining activity at 1 µM (ROCK1): 92.5%; remaining activity at 1 µM (CDK5/p25): 88.5%; remaining activity at 1 µM (NEK6): 96.1%; remaining activity at 1 µM (PKD3): 85.9%; remaining activity at 1 µM (MST2): 103%; remaining activity at 1 µM (SGK): 93.6%; remaining activity at 1 µM (AKT2): 105%; remaining activity at 1 µM (HCK): 95.5%
